{"source": "paper PMC7395062", "about": "“Multiparametric assessment of mitochondrial respiratory inhibition in HepG2 and RPTEC/TERT1 cells using a panel of mitochondrial targeting agrochemicals” (Archives of Toxicology, 2020)", "key": {"RPTEC/TERT1 cells": {"tested_on": "RPTEC/TERT1 cells", "experiment": "Resazurin reduction viability assay, RPTEC/TERT1", "assay_type": "cell-based, human", "settings": "for Statistical significance, Viability Galactose settings Resazurin / Statistical significance, Viability Glucose settings Resazurin: RPTEC/TERT1", "experimental": "These cells were obtained under licence from Evercyte GmBH, Vienna Austria. […] For experiments, cells were plated in a required format plate, allowed to become contact-inhibited and fed 24 h prior to treatment exposure. For experiments in galactose condition, cells were fed 24 h prior to experiment with culture medium (custom made DMEM/F12, PromoCell) in which 5 mM glucose was replaced with 5 mM galactose (Merck, G5388).\n(§1) The conversion of resazurin to fluorescent resorufin was measured in a plate reader at excitation/emission 540/590 nm.\n(§2) All results are average of 2–3 independent experiments."}, "HepG2 cells": {"tested_on": "HepG2 cells", "experiment": "Resazurin reduction viability assay, 2D HepG2", "assay_type": "cell-based, human", "experimental": "(§3) The HepG2 cell line, a human hepatocellular carcinoma, was obtained from ATCC (American Type Culture Collection, Wesel, Germany). […] Cells were maintained at 37 °C in a 5% CO2 humidified atmosphere, fed every 2 to 3 days and passaged at approximately 80% confluence. […] For galactose experiments, the medium was refreshed 24 h before exposure with galactose-containing medium. […] Culture medium was refreshed every 3–4 days and the culture was maintained for 21 days prior to dosing.\nas §1, §2"}, "[1]": {"biological_target": "NADH dehydrogenase (Complex I, CI) (Homo sapiens, UniProt O75251+O75306+P03886)", "sequence (O75251 39-213)": "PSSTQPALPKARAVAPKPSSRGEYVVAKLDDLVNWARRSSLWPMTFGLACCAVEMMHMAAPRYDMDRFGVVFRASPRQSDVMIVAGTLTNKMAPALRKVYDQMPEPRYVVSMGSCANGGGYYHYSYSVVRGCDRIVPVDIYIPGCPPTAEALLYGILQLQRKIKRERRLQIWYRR", "sequence (P03886 whole entry)": "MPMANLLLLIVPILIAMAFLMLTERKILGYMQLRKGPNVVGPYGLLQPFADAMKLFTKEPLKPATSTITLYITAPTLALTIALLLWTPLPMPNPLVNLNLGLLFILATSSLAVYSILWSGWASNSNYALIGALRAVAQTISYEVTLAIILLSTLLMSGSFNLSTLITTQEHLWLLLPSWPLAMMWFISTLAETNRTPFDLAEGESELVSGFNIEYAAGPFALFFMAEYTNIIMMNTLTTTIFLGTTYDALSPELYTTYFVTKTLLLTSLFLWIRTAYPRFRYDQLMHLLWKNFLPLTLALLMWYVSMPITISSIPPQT", "sequence (O75306 34-463)": "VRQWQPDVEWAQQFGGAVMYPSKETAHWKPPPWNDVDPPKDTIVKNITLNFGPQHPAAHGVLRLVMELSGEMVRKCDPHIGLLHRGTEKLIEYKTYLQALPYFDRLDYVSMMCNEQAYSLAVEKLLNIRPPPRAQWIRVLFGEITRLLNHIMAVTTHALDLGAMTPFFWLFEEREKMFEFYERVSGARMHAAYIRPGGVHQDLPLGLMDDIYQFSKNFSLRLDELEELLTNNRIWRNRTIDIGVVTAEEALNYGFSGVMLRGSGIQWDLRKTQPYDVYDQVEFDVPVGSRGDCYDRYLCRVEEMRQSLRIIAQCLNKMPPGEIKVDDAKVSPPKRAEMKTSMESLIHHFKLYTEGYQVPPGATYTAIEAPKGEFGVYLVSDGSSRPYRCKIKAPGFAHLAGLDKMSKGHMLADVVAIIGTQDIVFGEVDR", "protocol": "The mitochondrial complex assay uses real-time OCR measurement with sequential addition of specific complex substrates and/or inhibitors to identify the complex within the ETC that is inhibited. […] In the first step, cultured cells are permeabilised and provided with CI substrates. The test compound is injected and OCR is measured. […] OCR is measured for the second time. In the third step, Antimycin A together with ascorbate and tetramethyl phenylenediamine (TMPD) is added to simultaneously block CIII and supply CIV. A third and final OCR measurement is conducted.\nThe following day, cells were washed once in mitochondrial assay solution (MAS), containing 220 mM mannitol (Sigma, M9647), 70 mM sucrose (Sigma, S7903), 10 mM potassium phosphate (Sigma, P5655), 5 mM magnesium chloride (Sigma, M8266), 3 mM HEPES (Sigma, H0887) and 1 mM EGTA (Sigma, E4378) with 0.2% fatty acid-free BSA (Sigma, A8806). […] Each measurement consisted of a thirty second mix and two-minute read cycle. Compounds were injected sequentially and OCR was measured twice. […] Complex inhibition was determined using the second OCR measurement after compound/vehicle injection, normalised to the baseline OCR measurements prior to compound addition. ETC inhibition is determined in decreased OCR. CI inhibition is confirmed if the inhibited OCR by injection A can be rescued after injection B. CII inhibition is determined if there is no inhibition after A, but inhibition after B. CIII inhibition is determined if there is inhibition after A and B, with recovery after C. OCR inhibition after injection C indicates effects downstream of CIII.\nAll results are average of 2–3 independent experiments. Each independent experiment is referred to as biological replicate and includes at least two technical replicates. […] Variation in all performed assays was calculated and represented as standard deviation (SD). Curves were fit using the non-liner regression four-parameter Hill model."}, "HepG2 3D spheroids": {"tested_on": "HepG2 3D spheroids", "experiment": "Cell death assay (PI staining) in 3D cultured HepG2 spheroids", "assay_type": "cell-based, human", "settings": "for Effect of repeated exposure (5 × 24 h vs 1 × 24 h) on toxic sensitivity: 3D HepG2 spheroids; for EC50: Homo sapiens, HepG2, 24 h", "experimental": "as §3\nAt day 21, the culture medium was replaced by fresh medium containing the compounds in the desired concentration. […] For the repeat exposure scenario, Hoechst was added to the 4th exposure and PI to the 5th exposure. […] The confocal imaging was performed using a Nikon TiE2000 with perfect focus system and XY-stage (Nikon, Amsterdam, The Netherlands). Quantification of the Hoechst and PI signal localization was performed using Nis Elements Analysis software. First, a max projection was created of all z-stacks. The overlapping areas between Hoechst and PI in the projection picture were assessed based on a manually curated intensity threshold. Finally, the fraction of spheroids positive for PI staining was determined.\nas §2"}, "[2]": {"tested_on": "CII/CIII (succinate dehydrogenase / cytochrome bc1 complex)", "assay_type": "cell-based, human", "settings": "permeabilised HepG2; sequential substrates/inhibitors", "experimental": "The test compound is injected and OCR is measured. […] OCR is measured for the second time. […] A third and final OCR measurement is conducted.\nCompounds were injected sequentially and OCR was measured twice. […] ETC inhibition is determined in decreased OCR.\nas §2"}, "[3]": {"settings": "up to 10 µM, 24 h exposure, glucose"}}, "note": "Where two headings read alike, the source gives them in different places."}
{"smiles": "COc1cc2c(cc1OC)[C@@H]1C(=O)c3ccc4c(c3O[C@@H]1CO2)C=CC(C)(C)O4", "note": "[Deguelin]", "values": [{"measurement": "Statistical significance, Viability Galactose settings Resazurin", "setting": "RPTEC/TERT1 cells; f = 0.4 µM", "result": "* (*p < 0.05 (Tables 3, 4))"}, {"measurement": "Statistical significance, Viability Galactose settings Resazurin", "setting": "RPTEC/TERT1 cells; g = 7 µM", "result": "* (*p < 0.05 (Tables 3, 4))"}, {"measurement": "Statistical significance, Viability Galactose settings Resazurin", "setting": "RPTEC/TERT1 cells; h = 10 µM", "result": "* (*p < 0.05 (Tables 3, 4))"}, {"measurement": "Statistical significance, Viability Glucose settings Resazurin", "setting": "RPTEC/TERT1 cells; glucose, g = 7 µM", "result": "* (*p < 0.05 (Tables 3, 4))"}, {"measurement": "Statistical significance, Viability Glucose settings Resazurin", "setting": "RPTEC/TERT1 cells; glucose, h = 10 µM", "result": "* (*p < 0.05 (Tables 3, 4))"}, {"measurement": "Statistical significance, Viability Galactose settings Resazurin", "setting": "HepG2 cells; HepG2, f = 0.4 µM", "result": "* (*p < 0.05 (Tables 3, 4))"}, {"measurement": "Statistical significance, Viability Galactose settings Resazurin", "setting": "HepG2 cells; HepG2, g = 7 µM", "result": "* (*p < 0.05 (Tables 3, 4))"}, {"measurement": "Statistical significance, Viability Galactose settings Resazurin", "setting": "HepG2 cells; HepG2, h = 10 µM", "result": "* (*p < 0.05 (Tables 3, 4))"}, {"measurement": "OCR basal - Permeabilised cells Measurement 1 statistical significance", "setting": "[1]", "result": "* (*p < 0.05)"}]}
{"smiles": "COc1cc(CNC(=O)CCCC/C=C/C(C)C)ccc1O", "note": "[Capsaicin]", "values": [{"measurement": "Statistical significance, Viability Glucose settings Resazurin", "setting": "RPTEC/TERT1 cells; glucose, h = 10 µM", "result": "* (*p < 0.05 (Tables 3, 4))"}, {"measurement": "Effect on resazurin reduction", "setting": "RPTEC/TERT1 cells; [3]", "result": "did not affect resazurin reduction"}, {"measurement": "Effect on resazurin reduction / viability", "setting": "HepG2 cells; [3]", "result": "did not affect resazurin reduction"}, {"measurement": "LOEL, CI inhibition in mitochondrial complex assay", "setting": "[1]; permeabilised HepG2", "result": 50, "unit": "µM"}, {"measurement": "ETC-complex specificity pattern (CI)", "setting": "[1]; permeabilised HepG2, OCR inhibition after injection, recovery with succinate", "result": "expected CI-specificity pattern"}]}
{"smiles": "CCCCCC[C@H]1C(=O)O[C@H](C)[C@H](NC(=O)c2cccc(NC=O)c2O)C(=O)O[C@@H](C)[C@@H]1OC(=O)CC(C)C", "note": "[Antimycin A]", "values": [{"measurement": "Statistical significance, Viability Galactose settings Resazurin", "setting": "RPTEC/TERT1 cells; e = 0.08 µM", "result": "* (*p < 0.05 (Tables 3, 4))"}, {"measurement": "Statistical significance, Viability Galactose settings Resazurin", "setting": "RPTEC/TERT1 cells; f = 0.4 µM", "result": "* (*p < 0.05 (Tables 3, 4))"}, {"measurement": "Statistical significance, Viability Galactose settings Resazurin", "setting": "RPTEC/TERT1 cells; g = 7 µM", "result": "* (*p < 0.05 (Tables 3, 4))"}, {"measurement": "Statistical significance, Viability Galactose settings Resazurin", "setting": "RPTEC/TERT1 cells; h = 10 µM", "result": "* (*p < 0.05 (Tables 3, 4))"}, {"measurement": "Statistical significance, Viability Glucose settings Resazurin", "setting": "RPTEC/TERT1 cells; glucose, g = 7 µM", "result": "* (*p < 0.05 (Tables 3, 4))"}, {"measurement": "Statistical significance, Viability Glucose settings Resazurin", "setting": "RPTEC/TERT1 cells; glucose, h = 10 µM", "result": "* (*p < 0.05 (Tables 3, 4))"}, {"measurement": "Statistical significance, Viability Galactose settings Resazurin", "setting": "HepG2 cells; HepG2, d = 0.016 µM", "result": "* (*p < 0.05 (Tables 3, 4))"}, {"measurement": "Statistical significance, Viability Galactose settings Resazurin", "setting": "HepG2 cells; HepG2, e = 0.08 µM", "result": "* (*p < 0.05 (Tables 3, 4))"}, {"measurement": "Statistical significance, Viability Galactose settings Resazurin", "setting": "HepG2 cells; HepG2, f = 0.4 µM", "result": "* (*p < 0.05 (Tables 3, 4))"}, {"measurement": "Statistical significance, Viability Galactose settings Resazurin", "setting": "HepG2 cells; HepG2, g = 7 µM", "result": "* (*p < 0.05 (Tables 3, 4))"}, {"measurement": "Statistical significance, Viability Galactose settings Resazurin", "setting": "HepG2 cells; HepG2, h = 10 µM", "result": "* (*p < 0.05 (Tables 3, 4))"}, {"measurement": "Effect of repeated exposure (5 × 24 h vs 1 × 24 h) on toxic sensitivity", "setting": "HepG2 3D spheroids", "result": "increased the toxic sensitivity"}, {"measurement": "EC50", "setting": "HepG2 3D spheroids; read-out: EC50 cell death 3D HepG2, 1 × 24 h exposure", "result": "> 10000", "unit": "nM"}, {"measurement": "EC50", "setting": "HepG2 3D spheroids; read-out: EC50 cell death 3D HepG2, 5 × 24 h exposure", "result": 74, "unit": "nM"}, {"measurement": "ETC-complex specificity pattern (CII/CIII)", "setting": "[2]", "result": "conformed to this pattern"}]}
{"smiles": "COC(=O)N(OC)c1ccccc1COc1ccn(-c2ccc(Cl)cc2)n1", "note": "[Pyraclostrobin]", "values": [{"measurement": "Statistical significance, Viability Galactose settings Resazurin", "setting": "RPTEC/TERT1 cells; f = 0.4 µM", "result": "* (*p < 0.05 (Tables 3, 4))"}, {"measurement": "Statistical significance, Viability Galactose settings Resazurin", "setting": "RPTEC/TERT1 cells; g = 7 µM", "result": "* (*p < 0.05 (Tables 3, 4))"}, {"measurement": "Statistical significance, Viability Galactose settings Resazurin", "setting": "RPTEC/TERT1 cells; h = 10 µM", "result": "* (*p < 0.05 (Tables 3, 4))"}, {"measurement": "Statistical significance, Viability Glucose settings Resazurin", "setting": "RPTEC/TERT1 cells; glucose, g = 7 µM", "result": "* (*p < 0.05 (Tables 3, 4))"}, {"measurement": "Statistical significance, Viability Glucose settings Resazurin", "setting": "RPTEC/TERT1 cells; glucose, h = 10 µM", "result": "* (*p < 0.05 (Tables 3, 4))"}, {"measurement": "Statistical significance, Viability Galactose settings Resazurin", "setting": "HepG2 cells; HepG2, f = 0.4 µM", "result": "* (*p < 0.05 (Tables 3, 4))"}, {"measurement": "Statistical significance, Viability Galactose settings Resazurin", "setting": "HepG2 cells; HepG2, g = 7 µM", "result": "* (*p < 0.05 (Tables 3, 4))"}, {"measurement": "Statistical significance, Viability Galactose settings Resazurin", "setting": "HepG2 cells; HepG2, h = 10 µM", "result": "* (*p < 0.05 (Tables 3, 4))"}, {"measurement": "Statistical significance, Viability Glucose settings Resazurin", "setting": "HepG2 cells; HepG2, glucose, h = 10 µM", "result": "* (*p < 0.05 (Tables 3, 4))"}, {"measurement": "Effect of repeated exposure (5 × 24 h vs 1 × 24 h) on toxic sensitivity", "setting": "HepG2 3D spheroids", "result": "increased the toxic sensitivity"}, {"measurement": "ETC-complex specificity pattern (CII/CIII)", "setting": "[2]", "result": "conformed to this pattern"}]}
{"smiles": "CO/C=C(/C(=O)OC)c1ccccc1COc1cccc(C(F)(F)F)n1", "note": "[Picoxystrobin]", "values": [{"measurement": "Statistical significance, Viability Galactose settings Resazurin", "setting": "RPTEC/TERT1 cells; g = 7 µM", "result": "* (*p < 0.05 (Tables 3, 4))"}, {"measurement": "Statistical significance, Viability Galactose settings Resazurin", "setting": "RPTEC/TERT1 cells; h = 10 µM", "result": "* (*p < 0.05 (Tables 3, 4))"}, {"measurement": "Statistical significance, Viability Glucose settings Resazurin", "setting": "RPTEC/TERT1 cells; glucose, h = 10 µM", "result": "* (*p < 0.05 (Tables 3, 4))"}, {"measurement": "Statistical significance, Viability Galactose settings Resazurin", "setting": "HepG2 cells; HepG2, f = 0.4 µM", "result": "* (*p < 0.05 (Tables 3, 4))"}, {"measurement": "Statistical significance, Viability Galactose settings Resazurin", "setting": "HepG2 cells; HepG2, g = 7 µM", "result": "* (*p < 0.05 (Tables 3, 4))"}, {"measurement": "Statistical significance, Viability Galactose settings Resazurin", "setting": "HepG2 cells; HepG2, h = 10 µM", "result": "* (*p < 0.05 (Tables 3, 4))"}, {"measurement": "Effect of repeated exposure (5 × 24 h vs 1 × 24 h) on toxic sensitivity", "setting": "HepG2 3D spheroids", "result": "increased the toxic sensitivity"}, {"measurement": "ETC-complex specificity pattern (CII/CIII)", "setting": "[2]", "result": "conformed to this pattern"}]}
